According to PubChem BioAssay AID651837 (Sanford-Burnham Center for Chemical Genomics, 2012):
Active and inactive are the calls of the source.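 The calls were made as follows: active = compounds whose fitted half-inhibition dose is 9.7 micromolar or lower; inactive = the rest.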

The molecules below were run on Sufu-KO-LIGHT mouse cells, Gli-luciferase reporter luminescence (assay: Gli-SUFU pathway antagonists, Gli reporter, SAR follow-up, Sufu-KO-LIGHT mouse cells, luminescence, set 2 (AID 651837)).

Structure (SMILES) | IC50
O=C(Nc1cc(N2CCOCC2)ncn1)c1ccccc1 | > 9.7 µM (inactive)
CCOc1ccc(-c2nc(CSCC(=O)NC3CC3)c(C)o2)cc1 | 0.027 µM
CC1CCN(c2cc(NC(=O)c3ccccc3)ncn2)CC1 | 0.024 µM
O=C(Nc1cc(N2CCCCC2)ncn1)c1ccc(C(F)(F)F)cc1 | > 9.7 µM (inactive)
COc1ccccc1C(=O)Nc1cc(N2CCCCC2)ncn1 | > 9.7 µM (inactive)
N#Cc1ccc(C(=O)Nc2cc(N3CCCCC3)ncn2)cc1 | > 9.7 µM (inactive)
O=C(Nc1cc(NCC2CCCO2)ncn1)c1ccccc1 (stereo not drawn) | > 9.7 µM (inactive)
CC(C)Nc1cc(NC(=O)c2ccccc2)ncn1 | > 9.7 µM (inactive)
O=C(Nc1cc(N2CCCCC2)ncn1)c1ccco1 | > 9.7 µM (inactive)
O=C(Nc1cc(N2CCCCC2)ncn1)c1ccccc1Cl | > 9.7 µM (inactive)
O=C(Nc1cc(N2CCSCC2)ncn1)c1ccccc1 | > 9.7 µM (inactive)
O=C(Nc1cc(N2CCCCCC2)ncn1)c1ccccc1 | 0.035 µM
CC(C)(C)OC(=O)N1CCN(c2cc(NC(=O)c3ccccc3)ncn2)CC1 | > 9.7 µM (inactive)
CC(C)CNc1cc(NC(=O)c2ccccc2)ncn1 | > 9.7 µM (inactive)
CN1CCN(c2cc(NC(=O)c3ccccc3)ncn2)CC1 | > 9.7 µM (inactive)
N#Cc1cccc(C(=O)Nc2cc(N3CCCCC3)ncn2)c1 | > 9.7 µM (inactive)
Cc1ccc(C(=O)Nc2cc(N3CCCCC3)ncn2)cc1 | > 9.7 µM (inactive)
CC(C)(C)Nc1cc(NC(=O)c2ccccc2)ncn1 | > 9.7 µM (inactive)
O=C(Nc1cc(N2CCCCC2)ncn1)c1ccccc1 | 0.023 µM
CCCCNc1cc(NC(=O)c2ccccc2)ncn1 | > 9.7 µM (inactive)
COc1cccc(C(=O)Nc2cc(N3CCCCC3)ncn2)c1 | > 9.7 µM (inactive)
CCC(C)Nc1cc(NC(=O)c2ccccc2)ncn1 (stereo not drawn) | > 9.7 µM (inactive)
CCCCN(C)c1cc(NC(=O)c2ccccc2)ncn1 | > 9.7 µM (inactive)
O=C(Nc1cc(N2CCCCC2)ncn1)c1ccccc1C(F)(F)F | > 9.7 µM (inactive)
O=C(Nc1cc(N2CCNCC2)ncn1)c1ccccc1 | > 9.7 µM (inactive)
CC1CCCCN1c1cc(NC(=O)c2ccccc2)ncn1 (stereo not drawn) | > 9.7 µM (inactive)
CCOc1ccc(S(=O)(=O)NCc2ccncc2)cc1NC(=O)c1ccccc1 | 3.4 µM
O=C(Nc1cc(N2CCCCC2)ncn1)c1ccc(Cl)cc1 | > 9.7 µM (inactive)
